Laboratory results taken from patent US11993660B2, “Chimeric polypeptides and methods of altering the membrane localization of the same” (Cell Design Labs, Inc., priority 2017, dated 2024).

Tested on: Primary human T cells expressing FMC63-CAR with ERa LBD fusion
Assay: Brefeldin A block of ligand-induced surface trafficking
Format: cell-based
Conditions: 1 uM pre-treatment; then 500 ng/mL 4-OHT two hours
Method: Primary human T cells expressing FMC63-CAR with ERa LBD fusion were left untreated or were treated with 500 ng/mL 4-OHT ligand for two hours to induce surface expression of the CAR. Prior to 4-OHT treatment, half the cells were pre-treated with 1 uM Brefeldin A (FIG. 12, bottom two panels) to inhibit protein export from the Golgi.

Q: How did the “effect on 4-OHT-induced surface protein expression” value turn out when C[C@H]1CCC/C=C/[C@@H]2C[C@H](O)C[C@H]2[C@H](O)/C=C/C(=O)O1 [Brefeldin A] was run?
A: prevented 4-OHT-induced increase in surface protein expression
